{"source": "patent US20230167068A1", "about": "“BENZOPYRAZOLE COMPOUND” (MEDSHINE DISCOVERY INC., priority 2019, published 2023)", "test_system": "MMTV promoter luciferase reporter in HeLa cell line (GR transcription activation)", "assay": "MMTV transcription activation activity, luciferase reporter gene screening system (MMTV_GR transcription activation experiment)", "type": "cell-based", "conditions": "Homo sapiens; for Emax: HeLa, maximum effect value, positive control 1000 nM dexamethasone, read-out: TA (MMTV transcription activation activity) Effect; for pEC50: absolute EC50, HeLa MMTV-luciferase cells, 18 h, max concentration 1000 nM, read-out: TA (MMTV transcription activation activity) EC50", "text": "The promoter of mouse mammary tumor virus (MMTV) contains specific binding sites for activating GRs (GREs). To determine the activity of the compounds, a reporter gene (luciferase) was inserted after the MMTV promoter, and this construct was expressed in a stable manner in the genome of the HeLa cell line. MMTV promoter was activated by the test compounds to induce the expression of luciferase, and its activity was detected by luminescence measurement.\n• [0442] 1) All the culture media were carefully aspirated, the cell layer was rinsed gently with an appropriate amount of DPBS, and then aspirated. • [0443] 2) An appropriate amount of 0.05% Typsine EDTA was added and incubated in a CO2 incubator for 3-5 minutes to digest the cells. • [0444] 3) The cells were resuspended with an appropriate amount of cell culture medium. • [0445] 4) The amount of cells required was calculated, and the cell concentration was 4×10^3 cells/well. • [0446] 5) The cell suspension was diluted with appropriate cell culture medium. • [0447] 6) Cell suspension was dispensed into a disposable sterile loading slot. • [0448] 7) Inoculated 30 µL per well into a 384-well plate. • [0449] 8) The cell plate was placed in a 37° C. 5% CO2 incubator for 18-24 hours.\nCompounds were diluted with DMSO to 1 mM, 0.25 mM, 0.0625 mM, 0.015625 mM, 0.0039 mM, 0.0009765 mM, 0.000244 mM, 0.000061 mM, 0.00001526 mM and 0.0000038125 mM, then diluted 25-fold with serum culture medium treated with activated carbon, and finally 4x concentration compound experimental plate was obtained, prepared before use.\nThe final DMSO experimental concentration was 0.1%.\nMMTV_GR transcription activation activity experiment • [0458] 1) Inoculated cells: Fresh cells were inoculated into 384 white transparent bottom experimental plates at 4×10^3 cells/30 µL/well, and incubated at 37° C. 5% CO2 incubator for 24 hours. • [0459] 2) Compound preparation: The compound plate was prepared before the experiment, and the reference compound (dexamethasone) and the test compound of 4x concentration were prepared. Finally, the experimental plate of 4x concentration compound was obtained. • [0460] 3) Added compound: 10 µL of 4x compound was transferred with Bravo and added to cell plate. Incubated for 18 hours in a 37° C. 5% CO2 incubator. • [0461] 4) 30 µL of Bright-Glo fluorescent detection reagent was transferred to the cell plate. • [0462] 5) Centrifugal incubation for 2 minutes. • [0463] 6) The fluorescence value was measured with the Envision plate reader.\nPositive control: 1000 nM dexamethasone (0.1% DMSO)\nNegative control: 0.1% DMSO\nTest compound: Maximum concentration of 1000 nM, 4-fold dilution, 10 wells in total, repeated.\nDexamethasone: Maximum concentration of 1000 nM, 4-fold dilution, 10 wells in total, repeated.\nThe graphing software GraphPad Prism5 was used to create the concentration curves of the tested compounds and calculate the IC50 values.", "note": "pEC50: −log10 of the molar value.", "data": [{"smiles": "CC(C)[C@H](NC(=O)C(C)(F)F)[C@H](Oc1ccc2c(cnn2-c2ccc3nccn3c2)c1)c1ccccc1", "note": "[WX004]", "values": [{"measurement": "Emax", "value": 63.7, "unit": "%"}, {"measurement": "pEC50", "value": 8.23}]}, {"smiles": "C[C@H](NC(=O)C(C)(F)F)[C@H](Oc1ccc2c(cnn2-c2ccc3nncn3c2)c1)c1cc(F)cc(F)c1", "note": "[WX019]", "values": [{"measurement": "Emax", "value": 75.2, "unit": "%"}, {"measurement": "pEC50", "value": 9.03}]}, {"smiles": "CC(C)[C@H](NC(=O)C(C)(F)F)[C@H](Oc1ccc2c(cnn2-c2ccc3nncn3c2)c1)c1cc(F)cc(F)c1", "note": "[WX017]", "values": [{"measurement": "Emax", "value": 81.3, "unit": "%"}, {"measurement": "pEC50", "value": 8.59}]}, {"smiles": "C[C@H](NC(=O)C(C)(F)F)[C@H](Oc1ccc2c(cnn2-c2ccc3ncnn3c2)c1)c1cc(F)cc(F)c1", "note": "[WX034]", "values": [{"measurement": "Emax", "value": 89.2, "unit": "%"}, {"measurement": "pEC50", "value": 8.49}]}, {"smiles": "C[C@H](NC(=O)C(C)(F)F)[C@H](Oc1ccc2c(cnn2-c2ccc3nnnn3c2)c1)c1cc(F)cc(F)c1", "note": "[WX035]", "values": [{"measurement": "Emax", "value": 82.5, "unit": "%"}, {"measurement": "pEC50", "value": 8.25}]}, {"smiles": "C[C@H](NC(=O)C(C)(F)F)[C@H](Oc1ccc2c(cnn2-c2cnn(C)c2)c1)c1ccccc1", "note": "[WX043]", "values": [{"measurement": "Emax", "value": 72.8, "unit": "%"}, {"measurement": "pEC50", "value": 8.30}]}, {"smiles": "CC(C)[C@H](NC(=O)C(C)(F)F)[C@H](Oc1ccc2c(cnn2-c2ccc3nncn3c2)c1)c1ccccc1", "note": "[WX018]", "values": [{"measurement": "Emax", "value": 69.4, "unit": "%"}, {"measurement": "pEC50", "value": 7.91}]}, {"smiles": "C[C@H](NC(=O)C(C)(F)F)[C@H](Oc1ccc2c(cnn2-c2ccc3c(c2)CCCO3)c1)c1cc(F)cc(F)c1", "note": "[WX002]", "values": [{"measurement": "Emax", "value": 76, "unit": "%"}, {"measurement": "pEC50", "value": 8.68}]}, {"smiles": "C[C@H](NC(=O)C(C)(F)F)[C@H](Oc1ccc2c(cnn2-c2cn(C)nn2)c1)c1cc(F)cc(F)c1", "note": "[WX051]", "values": [{"measurement": "Emax", "value": 70.8, "unit": "%"}, {"measurement": "pEC50", "value": 8.31}]}, {"smiles": "C[C@H](NC(=O)C(C)(F)F)[C@H](Oc1ccc2c(cnn2-c2ccc3nccn3c2)c1)c1cc(F)cc(F)c1", "note": "[WX003]", "values": [{"measurement": "Emax", "value": 91.4, "unit": "%"}, {"measurement": "pEC50", "value": 9.64}]}]}
